Legend:
[1] = tested on: engorged adult female cattle ticks (Boophilus microplus); assay: Boophilus microplus injection test (BOOPMI Inj); format: in vivo; conditions: application rate 20 μg/animal; injection into abdomen; assessed after 7 days
Method in brief: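 Efficacy is read at 7 days as fertile egg laying (100% = no fertile eggs laid; 0% = all eggs fertile), with eggs of unclear fertility stored until larvae hatch at about 42 days. Five engorged adult females per dose each receive an abdominal injection of 1 μl compound dissolved in DMSO.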

[2] = tested on: adult dog ticks (Rhipicephalus sanguineus); assay: Rhipicephalus sanguineus in vitro contact test with adult brown dog ticks (T2); conditions: after 48 h
Method in brief: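 Acetone solutions coated onto test tube walls and floor, giving 5 μg/cm^2 at 900 ppm. Five to ten adult ticks held per tube in the dark at room temperature for 48 h, then heated at 45-50° C for up to 5 min; efficacy is the percentage of dead or moribund ticks unable to climb away.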

[3] = tested on: larvae of the mustard beetle (Phaedon cochleariae); assay: Phaedon cochleariae spray test (PHAECO); format: in vivo; conditions: Chinese cabbage leaf discs, after 7 days
Method in brief: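 Kill of mustard beetle larvae is read as % mortality 7 days after spraying. Spray liquid: active compound in acetone plus dimethylformamide, brought up with water holding 1000 ppm alkylaryl polyglycol ether emulsifier and diluted further in emulsifier-water.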

[4] = tested on: adult houseflies (Musca domestica); assay: Musca domestica test (MUSCDO); format: in vivo; conditions: application rate 100 ppm; after 2 days
Description: F. Musca domestica Test (MUSCDO)
Solvent: dimethyl sulphoxide
To produce a suitable preparation of active compound, 10 mg of active compound are mixed with 0.5 ml of dimethyl sulphoxide, and the concentrate is diluted with water to the desired concentration.
Vessels containing a sponge treated with sugar solution and the active compound preparation of the desired concentration are populated with 10 adult houseflies (Musca domestica).
After 2 days, the kill in % is determined. 100% means that all of the flies have been killed; 0% means that none of the flies have been killed.

[5] = tested on: caterpillars of the armyworm (Spodoptera frugiperda); assay: Spodoptera frugiperda spray test (SPODFR); format: in vivo; conditions: maize leaf discs, after 7 days
Method in brief: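 Percent kill read at day 7 on caterpillar-infested maize leaf discs. Discs were first sprayed with aqueous emulsifier-containing (1000 ppm) preparations made from acetone/dimethylformamide solutions, and dried. Scale: 0% none dead, 100% all dead.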

[6] = tested on: L1 larvae of the Australian sheep blowfly (Lucilia cuprina); assay: Lucilia cuprina test (LUCICU); format: in vivo; conditions: application rate 100 ppm; after 2 days
Method in brief: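 Percent mortality read at 2 days; 100% = all larvae killed, 0% = none. Test compound, predissolved in DMSO and water-diluted to the wanted level, was mixed into minced horsemeat holding roughly 20 first-instar larvae.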

[7] = tested on: adult cat fleas (Ctenocephalides felis); assay: Ctenocephalides felis oral test (CTECFE); format: in vivo; conditions: application rate 100 ppm in citrated cattle blood; after 2 days
Method in brief: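 Mortality read at 2 days as percent of fleas killed. Compound predissolved in DMSO, diluted into citrated cattle blood and offered to roughly 20 unfed adult C. felis via parafilm membrane feeder.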

[8] = logP determination by HPLC on a reversed-phase column (C18), EEC Directive 79/831 Annex V.A8; format: physicochemical; conditions: HPLC on reversed-phase column (C18), acetonitrile/water with formic acid, EEC Directive 79/831 Annex V.A8
Method in brief: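 Per EEC 79/831 Annex V.A8, values derive from HPLC retention at 2.0 ml/min and 55° C on a 50*4.6 C18 column. The 10→95% acetonitrile gradient (0.1%/0.09% formic acid) lasted 4.25 min plus a 1.25 min hold; mass detection was by MSD.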

[9] = tested on: greenhouse red spider mite (Tetranychus urticae); assay: Tetranychus urticae spray test, OP-resistant (TETRUR); format: in vivo; conditions: bean leaf discs, after 6 days
Method in brief: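 Percent kill, scored 6 days post-spray (0% = none dead, 100% = all dead), on Phaseolus vulgaris leaf discs infested with every life stage of the OP-resistant spider mite. Compound dissolved in acetone plus DMF, diluted to test concentration with emulsifier-containing water (1000 ppm).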

[10] = tested on: adult cat fleas (Ctenocephalides felis); assay: Ctenocephalides felis in vitro contact test with adult cat fleas (T1); conditions: after 48 h
Method in brief: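 Adult cat fleas (Ctenocephalides felis), 5-10 per tube, were exposed to the inner surface of 25 ml test tubes coated with compound in acetone. Tubes were incubated lying flat under ambient conditions. Efficacy was then read by standing tubes upright and knocking the fleas to the floor. Fleas that stayed motionless or moved uncoordinatedly counted as dead or moribund, where 100% means all fleas dead or moribund and 0% means none harmed.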

[11] = tested on: green peach aphid (Myzus persicae); assay: Myzus persicae spray test (MYZUPE); format: in vivo; conditions: application rate 100 g/ha; Chinese cabbage leaf discs; after 6 days
Description: G. Myzus persicae-spray Test (MYZUPE)
Solvents: 78 parts by weight of acetone
• 1.5 parts by weight of dimethylformamide Emulsifier: alkylaryl polyglycol ether
To produce a suitable preparation of active compound, 1 part by weight of active compound is dissolved using the stated parts by weight of solvent and made up with water comprising an emulsifier concentration of 1000 ppm until the desired concentration is reached. To produce further test concentrations, the preparation is diluted with emulsifier-containing water.
Discs of Chinese cabbage leaves (Brassica pekinensis) infested by all stages of the green peach aphid (Myzus persicae) are sprayed with an active compound preparation of the desired concentration.
After 6 days, the efficacy in % is determined 100% here means that all of the aphids have been killed; 0% means that no aphids have been killed.

Compound	efficacy (laying of fertile eggs) [1]	efficacy (dead or moribund ticks) ([2]; application rate 1 μg/cm^2)	efficacy (dead or moribund ticks) ([2]; application rate 5 μg/cm^2)	efficacy in % ([3]; application rate 100 g/ha)	efficacy (kill in %) [4]	efficacy in % ([5]; application rate 100 g/ha)	efficacy (kill in %) [6]	efficacy (kill in %) [7]	logP [8]	efficacy in % ([3]; application rate 500 g/ha)	efficacy in % ([5]; application rate 500 g/ha)	efficacy in % ([9]; application rate 100 g/ha)	efficacy (dead or moribund fleas) ([10]; application rate 5 μg/cm^2)	efficacy in % [11]	efficacy in % ([9]; application rate 500 g/ha)	efficacy (dead or moribund fleas) ([10]; application rate 1 μg/cm^2)
Cn1nc(C(F)(F)C(F)(F)F)c(C(F)(F)F)c1-n1cc(-c2ccc(Cl)c(C(=O)Nc3ccc(Cl)cc3)c2)cn1 [Ic-25]	100%	100%	100%	100%	90%	100%	100%	95%	4.93							
Cn1nc(C(F)(F)C(F)(F)F)c(C(F)(F)F)c1-n1cc(-c2cc(Cl)cc(C(=O)NC3(C#N)CC3)c2)cn1 [Ic-43]	100%	100%			100%		100%	100%		100%	100%					
Cn1nc(C(F)(F)C(F)(F)F)c(C(F)(F)F)c1-n1cc(-c2cc(C(=O)NC3CC3)ccc2Cl)cn1 [Ic-46]	100%	100%			100%		100%	100%		100%	100%					
Cn1nc(C(F)(F)C(F)(F)F)c(C(F)(F)F)c1-n1cc(-c2cc(C(=O)NC3CC3)cc(C(F)(F)F)c2)cn1 [Ic-59]	100%	100%			100%		100%	100%		100%	100%	90%				
Cn1nc(C(F)(F)C(F)(F)F)c(C(F)(F)F)c1-n1cc(-c2cc(C(=O)NC3CC3)cc(F)c2F)cn1 [Ic-61]	100%		80%		80%	100%	100%	100%		100%						
COc1ccc(-c2cnn(-c3c(C(F)(F)F)c(C(F)(F)C(F)(F)F)nn3C)c2)cc1C(=O)NC1(C#N)CC1 [Ic-67]	100%	80%		100%	95%		100%	100%	3.77			100%				
COc1ccc(-c2cnn(-c3c(C(F)(F)F)c(C(F)(F)C(F)(F)F)nn3C)c2)cc1C(=O)NC1CC1 [Ic-68]	100%	100%		100%	80%	83%	100%	100%	3.86			100%	100%			
Cn1nc(C(F)(F)C(F)(F)F)c(C(F)(F)F)c1-n1cc(-c2cc(C(=O)NC3(C#N)CC3)ncc2F)cn1 [Ic-73]	100%	80%	80%		90%	100%	100%	100%		100%	100%	100%				
CC1CC1NC(=O)c1cc(-c2cnn(-c3c(C(F)(F)F)c(C(F)(F)C(F)(F)F)nn3C)c2)ccc1Cl (stereo not shown) [Ic-79]				100%		100%			4.15			100%		90%		
Cn1nc(C(F)(F)C(F)(F)F)c(C(F)(F)F)c1-n1cc(-c2ccc(Cl)c(C(=O)NC3CC3)c2F)cn1 [Ic-106]	100%		100%		100%		100%	100%		100%	83%					
Cn1nc(C(F)(F)F)c(CF)c1-n1cc(-c2ccc(Cl)c(C(=O)NC3(C#N)CC3)c2)cn1 [Ic-115]				100%		100%			2.89			100%		90%		
Cn1nc(C(F)(F)C(F)(F)F)c(C=O)c1-n1cc(-c2ccc(Cl)c(C(=O)NC3(C#N)CC3)c2)cn1 [Ic-121]				100%					3.09			100%		100%		
Cn1nc(C(F)(F)F)c([S+](C)[O-])c1-n1cc(-c2ccc(Cl)c(C(=O)NC3(C#N)CC3)c2)cn1 (stereo not shown) [Ic-134]				100%					2.16			100%		100%		
Cn1nc(C(F)(F)C(F)(F)F)c(C(F)(F)F)c1-n1cc(-c2ccc(Cl)c(C(=O)Nc3ccccc3)c2)cn1 [Ic-136]	100%				90%		100%	100%		100%	100%				100%	
Cn1nc(C(F)(F)C(F)(F)F)c(C(F)(F)F)c1-n1cc(-c2ccc(Cl)c(C(=O)Nc3ccccn3)c2)cn1 [Ic-140]	100%				90%		100%	100%		100%	100%		100%		100%	100%
CC(NC(=O)c1cc(-c2cnn(-c3c(C(F)(F)F)c(C(F)(F)C(F)(F)F)nn3C)c2)ccc1Cl)C(N)=O (stereo not shown) [Ic-154]	100%				90%		100%	100%		100%	100%		80%		100%	100%
CC(CC1CC1)NC(=O)c1cc(-c2cnn(-c3c(C(F)(F)F)c(C(F)(F)C(F)(F)F)nn3C)c2)ccc1Cl (stereo not shown) [Ic-161]	100%	80%	100%		80%		100%	100%		100%	100%				100%	
Cn1nc(C(F)(F)C(F)(F)F)c(C(F)(F)F)c1-n1cc(-c2ccc(F)c(C(=O)NC3CC3)c2F)cn1 [Ic-174]	100%	100%	100%		100%		100%	100%		100%	100%					

From patent publication US9487489B2, “Halogen-substituted pyrazole derivatives as pest-control agents” (BAYER CROPSCIENCE AKTIENGESELLSCHAFT, priority 2013, dated 2016)
